Results published in patent publication US8969362B2 (priority 2004, dated 2015).

What was measured:
[1] = Metabolic stability test on rat liver S9; type: in vitro ADME; settings: rat liver S9 with NADPH, 1 μM test compound, 37° C.; residual rate after reaction
Procedure: The reaction using liver S9 of rat was conducted on a 96-well plate by using a screening robot by Tecan Company. S9 solution was prepared by adding 250 mM Kpi (ph 7.4) 20 ml and deionized water 20 ml to 10 ml of liver S9 of rat, a Cofactor solution was prepared by dissolving NADPH 220 mg in deionized water 40.5 ml (Final 6 mM), and IS (Internal Standard) solution was prepared by adding IS solution (1 mM DMSO solution) 300 μl to acetonitrile 30 ml (100 times dilution). The test compound (1 μM DMSO solution) was dissolved in an incubator at 37° C. After each 35 μL was poured in a 96-well plate (24 samples/plate), plates (sample plates, 96-well plates for dilution, each Deep well plates for the reaction and the recovery, plates for extraction of a solid phase) and reagents (S9 solution, Cofactor solution, IS (Internal Standard) solution, Stop solution, acetonitrile for elution) were set to the specified position in the booth of the robot and the reaction started (the concentration of the test compounds was 1 μM). Incubation was conducted under shaking at 37° C., the solid phase was extracted (at the same time, the internal standard for analysis was added). To the recovered samples 200 μL/well was added 50 μL of acetonitrile per each well, and to 2 plates of FALCON Deep well were poured 100 μL/well of the solution per well. By subjecting to the LC/MS analysis, the chromatography of the test compound and the internal standard were described and the peak area was calculated. And then, the stability (residual rate after reaction) was calculated.

rat spleen cells = experiment: cells; type: cell-based; settings: 24 h, read-out: Minimum effective concentration (interferon inducing activity)
[2] = Metabolic stability test using human plasma; type: in vitro ADME; settings: 1 μM test compound, 37° C., 15 minutes, pre-metabolization concentration as 100%
Procedure: Plasma was prepared from fresh human blood and the test compound (containing 1% DMSO) of the final concentration of 1 μM was added thereto.
After a metabolic reaction by plasma esterase was conducted at 37° C. for 15 minutes, the test compound was extracted with ethyl acetate, and quantitatively analyzed by reverse phase HPLC. The metabolic stability of the test compound was shown by the residual amount (%) per the concentration of pre-metabolization as 100%.

Row | Compound | Residual rate [1] | minimal effective concentration (rat spleen cells) | Residual rate [2]
1 | CCCCOc1nc(N)c2[nH]c(=O)n(CCOc3cccc(C(=O)OC)c3)c2n1 [Example 1, 2-butoxy-8-oxo-9-[2-(3-methoxycarbonylphenoxy)ethyl]adenine] | 0% | 0.0003 µM | 
2 | CCCCOc1nc(N)c2[nH]c(=O)n(CCOc3cccc(CC(=O)OC)c3)c2n1 [Example 2, 2-butoxy-8-oxo-9-[2-(3-methoxycarbonylmethylphenoxy)ethyl]adenine] | 1% | 0.003 µM | 1.4%
3 | CCCCOc1nc(N)c2[nH]c(=O)n(CCOc3ccccc3C(=O)OC)c2n1 [Example 3, 2-butoxy-8-oxo-9-[2-(2-methoxycarbonylphenoxy)ethyl]adenine] | 0% | 0.001 µM | 
4 | CCCCOc1nc(N)c2[nH]c(=O)n(CCOc3ccccc3CC(=O)OC)c2n1 [Example 4, 2-butoxy-8-oxo-9-[2-(2-methoxycarbonylmethylphenoxy)ethyl]adenine] | 0% | 0.001 µM | 
5 | CCCCOc1nc(N)c2[nH]c(=O)n(CCOc3ccc(C(=O)OC)cc3)c2n1 [Example 5, 2-butoxy-8-oxo-9-[2-(4-methoxycarbonylphenoxy)ethyl]adenine] | 0% |  | 
6 | CCCCOc1nc(N)c2[nH]c(=O)n(CCOc3ccc(CC(=O)OC)cc3)c2n1 [Example 6, 2-butoxy-8-oxo-9-[2-(4-methoxycarbonylmethylphenoxy)ethyl]adenine] | 0% | 0.01 µM | 
7 | CCCCOc1nc(N)c2[nH]c(=O)n(CCOc3ccc(CCC(=O)OC)cc3)c2n1 [Example 7, 2-butoxy-8-oxo-9-{2-[4-(2-methoxycarbonylethyl)phenoxy]ethyl}adenine] | 0% |  | 
8 | CCCCOc1nc(N)c2[nH]c(=O)n(CCCCNS(=O)(=O)c3cccc(C(=O)OC)c3)c2n1 [Example 8, 2-butoxy-8-oxo-9-[4-(3-methoxycarbonylbenzenesulfonamide)butyl]adenine] | 0% | 0.003 µM | 
9 | CCCCOc1nc(N)c2[nH]c(=O)n(CCCCNS(=O)(=O)c3cccc(CC(=O)OC)c3)c2n1 [Example 9, 2-butoxy-8-oxo-9-[4-(3-methoxycarbonylmethylbenzenesulfonamide)butyl]adenine] | 0% | 0.003 µM | <1.0%
10 | CCCCOc1nc(N)c2[nH]c(=O)n(CCCCNC(=O)Nc3cccc(C(=O)OC)c3)c2n1 [Example 10, 2-butoxy-8-oxo-9-[4-(3-methoxycarbonylphenylaminocarbonylamino)butyl]adenine] | 1% | 0.001 µM | 
